Reference: PubChem BioAssay (NCI)
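Growth conditions: 96-well plates. Treatment: test compound, 48 hours, 5 concentrations. Analysis: linear interpolation between bracketing concentrations; unreached endpoints set to highest concentration. GI50 = concentration required for 50% inhibition of growth. TGI marks complete inhibition of growth.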

Key:
Experiment in all cases: DTP human tumour cell line panel, 48 h
[1] = test system: DU-145 prostate
[2] = test system: HCT-116 colon
[3] = test system: HCT-15 colon
[4] = test system: LOX IMVI melanoma
[5] = test system: MOLT-4 leukemia
[6] = test system: NCI-H23 lung
[7] = test system: NCI-H522 lung
[8] = test system: SF-539 CNS
[9] = test system: SN12C renal

| SMILES | TGI [1] | TGI [2] | TGI [3] | TGI [4] | TGI [5] | TGI [6] | TGI [7] | TGI [8] | TGI [9] | GI50 [1] | GI50 [3] | GI50 [5] | GI50 [6] | GI50 [7] | GI50 [8] |
| --- | --- | --- | --- | --- | --- | --- | --- | --- | --- | --- | --- | --- | --- | --- | --- |
| COc1ccc(/C=C/C(=O)c2cc(CN(C)C)c(O)c(CN(C)C)c2)cc1 | > 100 µM | > 100 µM | > 100 µM | 31.9 µM | > 100 µM | > 100 µM | 43.2 µM | > 100 µM | > 100 µM |  |  |  |  |  |  |
| Clc1cc(Cl)nc(Nc2ccc3c(c2)CCC3)n1 | > 100 µM | > 100 µM | > 100 µM | 91.1 µM | 69.6 µM | > 100 µM |  | > 100 µM | > 100 µM |  |  |  |  |  |  |
| C#CC(O)/C=C/C(O)CCCC(O)CC#CC(O)C#CCCCCC(O)/C=C/CCCC(=O)CCCCCCCCCCCCCCCC(O)C(O)C#CC(=O)O (stereo unspecified) | > 25 µM | > 25 µM | > 25 µM | 10.4 µM | > 25 µM | > 25 µM | 17.1 µM |  | > 25 µM |  |  |  |  |  |  |
| CSCCC(NC(=O)C(Cc1c[nH]c2ccccc12)NC(=O)CCNC(=O)OC(C)(C)C)C(=O)NC(CC(=O)O)C(=O)NC(Cc1ccccc1)C(N)=O (stereo unspecified) | > 50 µM | > 50 µM |  | > 50 µM | > 50 µM |  | > 50 µM | > 50 µM | > 50 µM |  |  |  |  |  |  |
| O=C(NNC(=O)c1ccncc1)C(=O)Nc1cc(Cl)c(Cl)cc1Cl |  | > 100 µM | > 100 µM | > 100 µM | > 100 µM | > 100 µM | > 100 µM | > 100 µM | > 100 µM |  |  |  |  |  |  |
| Cc1c(C(=O)O)sc2nc[nH]c(=O)c12 | > 100 µM | > 100 µM | > 100 µM | > 100 µM | > 100 µM | > 100 µM | > 100 µM | > 100 µM | > 100 µM |  |  |  |  |  |  |
| O=C(O)c1c(CC(Cc2ccccc2)C(=O)O)ccc2c1CCC2 (stereo unspecified) | > 100 µM | > 100 µM | > 100 µM | > 100 µM | > 100 µM | > 100 µM | > 100 µM | > 100 µM | > 100 µM |  |  |  |  |  |  |
| COc1ccc(-c2nc(-c3cnccn3)n(C/C=C/c3ccccc3)n2)cc1 | > 100 µM | > 100 µM | > 100 µM | > 100 µM | > 100 µM | > 100 µM | > 100 µM | > 100 µM | > 100 µM |  |  |  |  |  |  |
| CC1=NN(c2ccccc2)C(=O)/C1=C\c1c(C)[nH]n(-c2ccccc2)c1=O | > 100 µM | > 100 µM | > 100 µM |  | > 100 µM | > 100 µM | > 100 µM | > 100 µM | > 100 µM |  |  |  |  |  |  |
| CC1(C)CC(=O)C2=C(C1)NC(=S)C(C#N)C2c1ccccc1 (stereo unspecified) | > 100 µM | > 100 µM | > 100 µM | > 100 µM |  | > 100 µM | > 100 µM | > 100 µM | > 100 µM |  |  |  |  |  |  |
| CCOC(=O)c1c(SC(=O)c2ccc(Cl)cc2)n(-c2ccccc2)c(=S)n(-c2ccccc2)c1=O | > 100 µM | > 100 µM | > 100 µM | > 100 µM | > 100 µM | > 100 µM | > 100 µM | > 100 µM | > 100 µM |  |  |  |  |  |  |
| C[C@@H]([C@H]1CC[C@@]2(C)[C@@H]3CC[C@@H]4C(=CC3=CC[C@]12C)CC[C@H](N(C)C)C4(C)C)N(C)C | > 100 µM | > 100 µM | > 100 µM | > 100 µM | > 100 µM | > 100 µM | > 100 µM | > 100 µM | > 100 µM |  |  |  |  |  |  |
| O=c1[nH]c(=S)[nH]c2c1CCCN2 |  | > 100 µM | > 100 µM | > 100 µM | > 100 µM | > 100 µM | > 100 µM |  | > 100 µM |  |  |  |  |  |  |
| COc1cccc(C2C(C#N)=C(N)Oc3cc(OCCCCCC[P+](c4ccccc4)(c4ccccc4)c4ccccc4)ccc32)c1 (stereo unspecified) | 2.21 µM |  | 6.14 µM |  | 3.96 µM | 2.83 µM | 2.49 µM | 2.12 µM |  | 0.95 µM | 2.24 µM | 1.22 µM | 0.624 µM | 0.515 µM | 0.745 µM |
| CCC1OC2(C)CC(C#N)(C#N)C1(C#N)C(=N)O2 (stereo unspecified) | > 100 µM | > 100 µM |  | > 100 µM | > 100 µM | > 100 µM |  | > 100 µM | > 100 µM |  |  |  |  |  |  |
| COC(=O)[C@@H]1C=CCN1S(=O)(=O)c1ccc(C)cc1 | > 100 µM | > 100 µM | > 100 µM | > 100 µM | > 100 µM | > 100 µM | > 100 µM | > 100 µM | > 100 µM |  |  |  |  |  |  |
| C/C(=N/NC(N)=S)C(CN1CCOCC1)C(C1=C(O)c2ccccc2OC1)c1ccccc1 (stereo unspecified) | > 100 µM | > 100 µM |  | > 100 µM | > 100 µM | > 100 µM | > 100 µM | > 100 µM | > 100 µM |  |  |  |  |  |  |
| Cc1c2oc(=O)c(C#N)cc2c2ccccn12 | > 100 µM | > 100 µM | > 100 µM | > 100 µM | > 100 µM | > 100 µM |  | > 100 µM |  |  |  |  |  |  |  |
| CNCC(SC)c1ccc(O)c(O)c1 (stereo unspecified) | 37.4 µM | 43.7 µM | > 100 µM | 84.9 µM | 47.2 µM | > 100 µM | 34.5 µM |  | 45.8 µM |  |  |  |  |  |  |
| Cc1cc2ccccc2n2c1nc1ccc(O)cc12 | > 10 µM | > 10 µM | > 10 µM |  | > 10 µM | > 10 µM | > 10 µM | > 10 µM | > 10 µM |  |  |  |  |  |  |
| COc1c(NC(C)=O)c2ccccc2c2ccccc12 | > 100 µM | > 100 µM | > 100 µM | > 100 µM | > 100 µM | > 100 µM | > 100 µM |  | > 100 µM |  |  |  |  |  |  |
| Oc1c(NCn2nc(CCCCCCCCc3nn(CNc4ccc5ccccc5c4O)c(=S)o3)oc2=S)ccc2ccccc12 | > 100 µM | 50.4 µM | > 100 µM |  | > 100 µM | > 100 µM | > 100 µM |  | > 100 µM |  |  |  |  |  |  |
| C=CCN1C(=O)C[C@H](Cc2ccccc2)NC(=O)C[C@H](Cc2ccccc2)N(CC=C)C(=O)C[C@H](Cc2ccccc2)NC(=O)C[C@@H]1Cc1ccccc1 | > 100 µM | > 100 µM | > 100 µM | > 100 µM | 6.91 µM | > 100 µM |  | > 100 µM | > 100 µM |  |  |  |  |  |  |
| Cc1noc(-c2ccc(C(=O)O)[nH]2)c1Br | > 100 µM | > 100 µM | > 100 µM |  | > 100 µM | > 100 µM | > 100 µM |  |  |  |  |  |  |  |  |
